This is an account of results in paper PMC12455390, “Three Is Better than One: A Multimetal Complex that Triggers Immunogenic Cell Death” (Angewandte Chemie (International Ed. in English), 2025).

Data set [1] deals with T1, human TrxR2 (Homo sapiens, UniProt Q9NNW7).
T1 construct: purchased SeLENOZYME
Kind of data set: Isolated TrxR2 inhibition (DTNB assay). The settings on record: 75 min incubation at 37 °C. It is filed as biochemical. The procedure:
(§1) A number of gold and ruthenium complexes are known to inhibit members of the TrxR enzyme family.^[ [27] ^] […] We thus sought to evaluate the activity of our gold‐ and ruthenium‐containing complexes against TrxR1 (found in the cytoplasm) and TrxR2 (found in the mitochondria).
(§2) Human TrxR1 and TrxR2 were purchased from SeLENOZYME and inhibition studies were carried out by means of a DTNB assay in 96-well culture plates. Enzymes were diluted to achieve a concentration of 3.58 U mL^−1. The compounds subject to testing were freshly dissolved in DMF. 10 μL aliquots of the enzyme solution and 10 μL of solutions of the compounds at graded concentrations or 10 μL of 1% DMF in PBS (positive control) were added and incubated for 75 min at 37 °C. A second control consisted of 10 µL of the highest concentration of each compound with 10 µL of PBS. After the chosen incubation time, 10 µL of NADPH (10 mM), 160 µL TE buffer (50 mM Tris-HCl, 2 mM EDTA, pH 7.5) and 10 µL ethanolic DTNB (50 mM) were added producing a total reaction volume of 200 µL. After proper mixing, the formation of 5-TNB was monitored with a microplate reader at 405 nm. This was done 10 times at 30 second intervals over the course of about 5 min. A TNB standard curve (0-2 mM in 200 µL TE buffer) was used to calculate the exact DTNB consumed in the reaction with linear region slopes being calculated by plotting A405 vs time (min). The IC50 values representing the concentration of compound serving to decrease the enzymatic activity of the untreated control by 50% were calculated and are given as the mean and standard error of three repeated experiments. The combination index (CI) was calculated using the Chou-Talalay method^6

For data set [2], the target named is T2, human TrxR1 (Homo sapiens, UniProt Q16881).
T2 construct: purchased SeLENOZYME
T2 sequence (Q16881 1-499 isoform Q16881-5): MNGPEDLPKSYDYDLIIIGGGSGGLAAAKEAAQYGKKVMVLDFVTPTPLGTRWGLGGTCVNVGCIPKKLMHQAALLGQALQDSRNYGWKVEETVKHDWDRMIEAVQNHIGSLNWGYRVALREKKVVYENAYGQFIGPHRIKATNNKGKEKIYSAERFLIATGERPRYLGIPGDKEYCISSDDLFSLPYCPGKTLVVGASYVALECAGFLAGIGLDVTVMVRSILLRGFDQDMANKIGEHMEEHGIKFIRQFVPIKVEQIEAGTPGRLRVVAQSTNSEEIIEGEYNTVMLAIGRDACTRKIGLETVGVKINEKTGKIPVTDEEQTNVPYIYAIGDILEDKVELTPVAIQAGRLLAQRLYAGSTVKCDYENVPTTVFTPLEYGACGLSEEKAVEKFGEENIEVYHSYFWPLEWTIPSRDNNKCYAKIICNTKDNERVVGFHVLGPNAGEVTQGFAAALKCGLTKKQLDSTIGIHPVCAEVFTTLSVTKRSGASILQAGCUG
Kind of data set: Isolated TrxR1 inhibition (DTNB assay). It is filed as biochemical. The settings on record: 75 min incubation at 37 °C. Here is the method:
as §1, §2

Data set [3] relates to reducing enzymes, such as lipoamide dehydrogenase, glutathione reductase, and TrxR. Format: cell-based. Here is the method:
We thus explored several targets in addition to cellular and organelle uptake after 24 h incubation. A lipoate‐to‐dihydrolipoate reduction assay in HCT‐116 cells was used to evaluate the ability of the complexes to inhibit reducing enzymes, such as lipoamide dehydrogenase, glutathione reductase, and TrxR.^[ [25] ^]
In short, HCT-116 cells were harvested and seeded at a density of 10,000 cells/well in 96-well culture plates. Following an overnight incubation at 37°C under a 5% CO2 atmosphere, the medium was replaced, and the cells incubated with 1 µM of each complex for additional 24 hr. Thereafter, the media were removed from each well, which were then washed with 200 μL of HBSS solution. Finally, 100 µL of 5 mM lipoate and 1 mM of DTNB solutions were added to each well. The absorbance of each well at 405 nm was recorded immediately and once every 20 min for one hour using a microplate reader. Plates were covered with aluminum foil between readings.

Data set [4] deals with A2780cis (ovarian carcinoma resistant to cisplatin). As to the kind of experiment: Antiproliferative MTT assay, A2780cis. It is filed as cell-based, human. The settings on record: A2780 CisR, 72 h incubation. The procedure:
(§3) We examined the antiproliferative activity of the heterometallic complexes 3–5 and compared them against their monometallic constituent components, as well as a physical 1:1:1 mixture of 1 + Oxa + 2 after 72 h incubation across a panel of five cancer cell lines: A2780 (ovarian carcinoma), A2780cis (ovarian carcinoma resistant to cisplatin, also referred to as A2780CP), CT26 WT (murine colorectal carcinoma), A375 (melanoma), and PC9 (non‐small cell lung cancer).
(§4) A375 melanoma cells (5000 cells/well), PC9 […] cells (5000 cells/well), CT26 WT murine colon carcinoma cells (5000 cells/well), A2780 ovarian carcinoma cells (5000 cells/well), and A2780cis cisplatin-resistant ovarian carcinoma cells (7000 cells/well), were seeded in flat-bottom 96-well plates in their respective cell culture media (100 µL) and incubated at 37°C in a 5% CO2 environment for 24 h. After that, the media were replaced with the fresh media. Stock solutions of the compounds in DMSO or in cell culture medium (for Oxa) were freshly prepared and diluted with the respective cell culture medium to graded concentrations (final concentration of DMSOmax: 0.5% v/v). After 72 h of exposure, the media were removed and 100 µL of 0.5 mg/mL 3-(4,5-dimethylthiazol-2-yl)-2,5-diphenyl tetrazolium bromide (MTT) in DMEM or RPMI were added and the plate in question further incubated for an additional 1 h. The media containing the MTT solution was removed and the resulting formazan crystals were dissolved in 100 µL DMSO. The absorbance of the solution in each well was read at 570 nm using a BioTek Cytation3 plate reader. The IC50 value, which is the drug concentration needed for 50% reduction in survival, based on the survival curve, was calculated by fitting nonlinear curves in GraphPad Prism 5 Ver 5.03, using a normalized response variable slope model constructed by plotting cell viability (%) vs log of the concentration of the complex in question in nM. The results are presented as the mean values of three independent experiments.

The subject of data set [5] is HCT-116 cells. As to the kind of experiment: Total cellular metal accumulation (ICP-MS). It is filed as cell-based. The note with it: 1 µM, 24 h. The procedure:
It is important to note the TrxR assay was performed using isolated enzymes. […] Recognizing this, we incubated HCT‐116 cells with 1 µM of complexes 1–5 for 24 h and quantified the total metal content via ICP‐MS (Figure 4a).
1 x 10^6 HCT-116 cells were seeded in a 6-well plate (2 mL RPMI-1640). After incubating overnight, the medium was replaced, and the cells were treated with the test compounds (1 µM) for 24 h. The resulting cell monolayers were washed twice with cold PBS, harvested and counted in PBS for a total volume of 400 µL. Samples were divided, and each was mineralized with 1 mL aqua regia and evaporated to dryness on a 110 °C hot plate overnight. Later, 1 mL of 2% HCl + 1% thiourea was added to each vial. Samples were quantified via ICP-MS. Metal accumulation levels were determined using the relative isotopic prevalence of ^195Pt, ^101Ru, and ^197Au.

For data set [6], the system named is A375 (melanoma). As to the kind of experiment: Antiproliferative MTT assay, A375. Format: cell-based, human. The note with it: A375, 72 h incubation. The procedure:
as §3, §4

Data set [7] concerns PC9 (non-small cell lung cancer). As to the kind of experiment: Antiproliferative MTT assay, PC9. It is filed as cell-based, human. The settings on record: PC9, 72 h incubation. The procedure:
as §3, §4

Data set [8] relates to CT26 WT (murine colorectal carcinoma). Kind of data set: Antiproliferative MTT assay, CT26 WT. It is filed as cell-based. The settings on record: CT 26 WT, 72 h incubation. The procedure: as §3, §4
Data set [9] relates to A2780 (ovarian carcinoma). Kind of data set: Antiproliferative MTT assay, A2780. The note with it: A2780, 72 h incubation. Format: cell-based, human. Here is the method:
as §3, §4

Data set [10] concerns CT26 cells. As to the kind of experiment: Extracellular HMGB1 release (ELISA). It is filed as cell-based, murine. The settings on record: IC50 concentrations, 24 h. Here is the method:
Oxa alone produced a modest effect, consistent with its known ICD profile.^[ [5] ^]
1 x 10^6 CT-26 cells were seeded in a 6-well plate (2 mL RPMI-1640). […] The HMGB1 release of the supernatant was quantified using HMGB1 Detection Kit ELISA (Chondrex, Catalog 6010) according to the manufacturer’s instructions.

Structures are written as SMILES. Read-outs that look alike come from different tables or passages of the source.

T1 sequence (Q9NNW7 37-524): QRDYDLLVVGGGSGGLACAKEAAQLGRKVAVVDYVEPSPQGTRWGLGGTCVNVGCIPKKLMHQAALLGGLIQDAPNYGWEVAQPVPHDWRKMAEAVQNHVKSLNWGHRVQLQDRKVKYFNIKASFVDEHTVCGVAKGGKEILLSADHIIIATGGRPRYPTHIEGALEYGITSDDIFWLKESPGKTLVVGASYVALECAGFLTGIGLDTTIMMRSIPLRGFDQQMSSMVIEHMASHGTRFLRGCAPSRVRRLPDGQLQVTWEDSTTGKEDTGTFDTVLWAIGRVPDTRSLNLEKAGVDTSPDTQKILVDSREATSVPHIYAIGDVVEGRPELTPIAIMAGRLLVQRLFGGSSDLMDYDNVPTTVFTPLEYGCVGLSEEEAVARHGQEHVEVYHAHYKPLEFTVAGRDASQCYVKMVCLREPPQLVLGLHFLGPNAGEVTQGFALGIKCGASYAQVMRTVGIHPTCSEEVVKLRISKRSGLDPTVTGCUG

As for `CC(=O)OC[C@H]1O[C@@H]([S-])[C@H](OC(C)=O)[C@@H](OC(C)=O)[C@@H]1OC(C)=O.CCP(CC)CC.[Au+]` [Auranofin, reference compound], the IC50 is 0.22 ± 0.04 µM in data set [1] and 0.06 ± 0.02 µM in [2]. The “dihydrolipoate production relative to control” value in [3] (HCT-116 cells, 1 µM, 24 h) is given as 55%.

For `Cc1ccc(C(C)C)cc1.O=C(O)c1ccc(NC(=S)c2ccccn2)cc1.[Cl-].[Cl][Ru+]` [Complex 1, [Chlorido(η6-p-cymene)(N-(4-benzoic acid)-2-pyridinecarbothioamide)ruthenium(II)] chloride], the concentration for half-maximal inhibition (IC50) in [4] is over 40 µM; in [1], 4.36 ± 0.41 µM; in [2], 3.44 ± 0.32 µM; in data set [6], over 40 µM; in data set [7], over 40 µM; in data set [8], over 40 µM. Further, the midpoint of inhibition in data set [9], the IC50, lay at 15.7 ± 4.3 µM. Besides, in data set [5], the “total cellular metal uptake” value was “low accumulation of ruthenium”. In addition, the “dihydrolipoate production relative to control” value in data set [3] is recorded as “activity similar to untreated cells (control)”.

As for `Cc1cc(C)c(-n2ccn(CCOC(=O)NCCN)[c]2=[Au-3]=[c]2n(-c3c(C(C)C)cccc3C(C)C)c3c(n2-c2c(C(C)C)cccc2C(C)C)C(=O)c2ccccc2C3=O)c(C)c1.O=C([O-])C(F)(F)F` [Complex 2, (1-(2-(((2-Aminoethyl)carbamoyl)oxy)ethyl)-3-mesityl-1,3-dihydro-2H-2λ3-imidazol-2-yl)(1,3-bis(2,6-diisopropylphenyl)-4,9-dioxo-1,3,4,9-tetrahydro-2H-2λ3-naphtho[2,3-d]imidazol-2-yl)gold (I) TFA salt], the IC50 came to 0.56 ± 0.09 µM in data set [4]; 1.27 ± 0.21 µM in [1]; 1.62 ± 0.13 µM in [2]; 2.48 ± 0.35 µM in [6]; 0.49 ± 0.13 µM in [7]; 14.9 ± 0.4 µM in [8]. In addition, inhibition in [9] was half-maximal at 0.34 ± 0.08 µM (IC50). Also, the “dihydrolipoate production relative to control” value in [3] (HCT-116 cells, 1 µM, 24 h) was 72%.

As to `O=C1[O][Pt]2([NH][C@@H]3CCCC[C@H]3[NH]2)[O]C1=O` [Oxa, oxaliplatin, reference compound], the IC50 came to 1.01 ± 0.22 µM in [4]; 28.2 ± 2.9 µM in data set [1]; 25.6 ± 3.7 µM in data set [2]; 3.16 ± 0.49 µM in data set [6]; 8.2 ± 1 µM in [7]; 20 ± 1.4 µM in data set [8]. In data set [9], this compound came in with an IC50 of 0.29 ± 0.03 µM. The “Extracellular HMGB1 release” value in [10] is “modest effect”. For the same compound, in [3] (HCT-116 cells, 1 µM, 24 h), the “dihydrolipoate production relative to control” value is given as “activity similar to untreated cells (control)”.
